Results: patent US20220072075A1, “METHOD FOR PRODUCING NATURAL ANTIMICROBIAL SUBSTANCE AND ANTIMICROBIAL COMPOSITION COMPRISING NATURAL ANTIMICROBIAL SUBSTANCE PRODUCED BY THE SAME” (MY CO.,LTD, priority 2020, published 2022)

Tested on: Staphylococcus aureus
Assay: Antimicrobial Efficacy Test 4: elimination of Staphylococcus aureus, identification using a mass spectrometer
Type: cell-based
Conditions: substance added as named (70% ethanol, Febreze)
Procedure: In the present disclosure, “natural antimicrobial substance (n %)” means that the natural antimicrobial substance of the present disclosure is dissolved in multi-photocatalyst water or hypochlorous acid water (pH 5) at a concentration of n %. FIGS. 4 to 9 show the data obtained by identifying Staphylococcus aureus and Staphylococcus aureus plus specific substance using a mass spectrometer.

CCO [70% ethanol, ethanol]
elimination of Staphylococcus aureus (mass spectrum / bacterial identification): not eliminated
